# Target: IDH1 R132H (Homo sapiens, UniProt O75874, R132H)
# Assay: In vitro assay for IDH1 R132H inhibitors (NADPH/aKG, resazurin detection)
# Assay type: biochemical
# Details: Table 4A; 0.2 μg/ml IDH1 R132H, 50 minutes at room temperature; read-out: IC50 (uM), IDH1 R132H Inhibition
# Protocol: Assays were conducted in a volume of 76 μl assay buffer (150 mM NaCl, 10 mM MgCl2, 20 mM Tris pH 7.5, 0.03% bovine serum albumin) as follows in a standard 384-well plate: To 25 ul of substrate mix (8 uM NADPH, 2 mM aKG), 1 μl of test compound was added in DMSO. The plate was centrifuged briefly, and then 25 μl of enzyme mix was added (0.2 μg/ml IDH1 R132H) followed by a brief centrifugation and shake at 100 RPM. The reaction was incubated for 50 minutes at room temperature, then 25 μl of detection mix (30 μM resazurin, […]) was added and the mixture further incubated for 5 minutes at room temperature. The conversion of resazurin to resorufin was detected by fluorescent spectroscopy at Ex544 Em590 c/o 590.
# The compounds of Formula I set forth in Table 1 and the compounds set forth in Table 2 were tested in this assay and the results set forth below in Table 4A and 4B.
# IDH1 R132H, sequence (O75874 whole entry R132H): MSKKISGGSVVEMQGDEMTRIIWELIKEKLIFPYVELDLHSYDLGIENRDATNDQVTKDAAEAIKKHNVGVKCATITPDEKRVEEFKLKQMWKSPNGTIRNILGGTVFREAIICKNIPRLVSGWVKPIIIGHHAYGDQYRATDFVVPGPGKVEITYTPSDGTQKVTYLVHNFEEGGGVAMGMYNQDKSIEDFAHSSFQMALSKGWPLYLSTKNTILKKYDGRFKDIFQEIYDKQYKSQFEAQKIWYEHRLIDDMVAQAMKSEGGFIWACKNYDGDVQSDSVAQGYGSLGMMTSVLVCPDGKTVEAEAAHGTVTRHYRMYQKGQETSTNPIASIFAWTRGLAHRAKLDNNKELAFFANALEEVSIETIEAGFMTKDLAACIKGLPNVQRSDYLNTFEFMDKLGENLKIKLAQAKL
row,Compound,IC50
1,"Cc1ccccc1[C@@H](C(=O)NC1CCCCC1)N(C(=O)Cc1cccs1)c1cccc(F)c1 (single isomer, unassigned) [Compound 54]",≤ 0.1 µM
2,COc1ccc(C(C(=O)NC2CCCCC2)N(C(=O)Cc2cccs2)c2cccc(F)c2)cc1 (centres unmarked) [Compound 77],≥ 100 µM
3,O=C(NC1CCCC1)C(c1ccccc1F)N(C(=O)Cc1cccs1)c1ccc2c(c1)OCO2 (centres unmarked) [Compound 6],0.1 to 1 µM
4,O=C(Cc1cccs1)N(c1cccc(F)c1)C1(C(=O)NC2CCCC2)CCCCCC1 [Compound 74],1 to 10 µM
5,O=C(NC1CCCC1)C(c1ccccc1)N(C(=O)Cc1cccs1)c1cccc(F)c1 (centres unmarked) [Compound 45],0.1 to 1 µM
6,COc1ccc(C(C(=O)NC2CCCC2)N(C(=O)Cc2cccs2)c2cccc(F)c2)cc1OC (centres unmarked) [Compound 19],≥ 100 µM
7,O=C(NC1CCCCC1)C(c1ccncc1)N(C(=O)Cc1cccs1)c1cccc(F)c1 (centres unmarked) [Compound 76],1 to 10 µM
8,O=C(NC1CCCCC1)C(c1ccccc1O)N(C(=O)Cc1cccs1)c1cccc(F)c1 (centres unmarked) [Compound 67],0.1 to 1 µM
9,CCc1ccccc1C(C(=O)NC1CCCCC1)N(C(=O)Cc1cccs1)c1cccc(F)c1 (centres unmarked) [Compound 65],0.1 to 1 µM
10,O=C(NC1CCCC1)C(c1ccccc1)N(C(=O)Cc1cccs1)c1ccccc1F (centres unmarked) [Compound 48],0.1 to 1 µM
11,O=C(NC1CCCC1)C(c1cccc([N+](=O)[O-])c1)N(C(=O)Cc1cccs1)c1cccc(F)c1 (centres unmarked) [Compound 20],≥ 100 µM
12,Cc1ccsc1C(C(=O)NC1CCCCC1)N(C(=O)Cc1cccs1)c1cccc(F)c1 (centres unmarked) [Compound 51],0.1 to 1 µM
13,Cc1ccccc1C(C(=O)NC1CCCCCC1)N(C(=O)Cc1cccs1)c1cccc(F)c1 (centres unmarked) [Compound 80],≤ 0.1 µM
14,COc1cccc(N(C(=O)Cc2cccs2)C(C(=O)NC2CCCC2)c2ccccc2Cl)c1 (centres unmarked) [Compound 3],0.1 to 1 µM
15,Cc1ccccc1C(C(=O)NC1CCCCC1)N(C(=O)c1ccccn1)c1ccccc1F (centres unmarked) [Compound 59],1 to 10 µM
16,O=C(NC1CCCCC1)C(c1ccccc1)N(C(=O)c1ccccn1)c1ccccc1F (centres unmarked) [Compound 58],1 to 10 µM

row,Compound,IC50
1,O=C(Cc1cccs1)N(c1cccc(F)c1)C1(C(=O)NC2CCCC2)CCCCC1 [Compound 24],1 to 10 µM
2,N#Cc1ccc(C(C(=O)NC2CCCC2)N(C(=O)Cc2cccs2)c2cccc(F)c2)cc1 (centres unmarked) [Compound 25],≥ 100 µM
3,Cc1ccc(N(C(=O)c2sc(C)nc2C)C(C(=O)NC2CCCC2)c2ccccc2)cc1 (centres unmarked) [Compound 9],1 to 10 µM
4,Cc1ccccc1[C@H](C(=O)NC1CCCCC1)N(C(=O)Cc1cccs1)c1cccc(F)c1 [Compound 53],1 to 10 µM
5,CCCCc1ccc(C(C(=O)NC2CCCCC2)N(C(=O)Cc2cccs2)c2cccc(F)c2)cc1 (centres unmarked) [Compound 86],≥ 100 µM
6,COc1cccc(C(C(=O)NC2CCCCC2)N(C(=O)Cc2cccs2)c2cccc(F)c2)c1 (centres unmarked) [Compound 49],0.1 to 1 µM
7,Cc1ccccc1C(C(=O)NC1CCCCC1)N(C(=O)Cc1cccs1)C(C)(C)C (centres unmarked) [Compound 69],≥ 100 µM
8,O=C(NC1CCCCC1)C(c1ccccc1F)N(Cc1cccs1)C(=O)c1ccccn1 (centres unmarked) [Compound 37],10 to 100 µM
9,O=C(Cc1cccs1)N(c1cccc(F)c1)C1(C(=O)NC2CCCC2)CCCC1 [Compound 23],10 to 100 µM
10,Cc1ccccc1C(C(=O)NC1CCCC1)N(C(=O)Cn1nnc2ccccc21)c1ccccc1F (centres unmarked) [Compound 5],0.1 to 1 µM
11,O=C(NC1CCCCC1)C(c1ccccc1F)N(C(=O)c1ccccn1)c1cccc(F)c1 (centres unmarked) [Compound 33],0.1 to 1 µM
12,Cc1ccccc1C(C(=O)NC1CCCCC1)N(Cc1ccccc1)C(=O)Cc1cccs1 (centres unmarked) [Compound 71],1 to 10 µM
13,CCOc1ccccc1C(C(=O)NC1CCCCC1)N(C(=O)Cc1cccs1)c1cccc(F)c1 (centres unmarked) [Compound 64],1 to 10 µM
14,O=C(NC1CCCCC1)C(c1ccc(-c2ccccc2)cc1)N(C(=O)Cc1cccs1)c1cccc(F)c1 (centres unmarked) [Compound 66],≥ 100 µM
15,O=C(NC1CCCC1)C(c1ccccc1F)N(C(=O)Cc1cccs1)c1cccc(F)c1 (centres unmarked) [Compound 43],0.1 to 1 µM

# Same assay, conditions: Table 4B; 0.2 μg/ml IDH1 R132H, 50 minutes at room temperature; read-out: IC50, IDH1 R132H Inhibition
row,Compound,IC50
1,O=C(NC1CCCCC1)C(c1cc(F)c(F)cc1F)N(C(=O)Cc1cccs1)c1cccc(F)c1 (centres unmarked) [Compound 106],0.1 to 1 µM
2,N#Cc1ncn(CC(=O)N(c2cccc(F)c2)C(C(=O)NC2CCCCC2)c2ccccc2Cl)c1C#N (centres unmarked) [Compound 384],0.1 to 1 µM
3,O=C(NC1CCCCC1)C(c1ccccc1Cl)N(C(=O)c1cc2ccccc2[nH]1)c1cccc(F)c1 (centres unmarked) [Compound 382],0.1 to 1 µM
4,Cc1ccccc1C(C(=O)NC1CCCCC1)N(C(=O)Cc1cccs1)c1ccc2c(c1)OCCO2 (centres unmarked) [Compound 149],0.1 to 1 µM
5,CCC(=O)Nc1cccc(N(C(=O)Cc2cccs2)C(C(=O)NC2CCCCC2)c2ccccc2C)c1 (centres unmarked) [Compound 112],0.1 to 1 µM
6,Cc1ccccc1C(C(=O)NC1CCCCC1)N(C(=O)Cc1ccc(OC(=O)N2CCN(C)CC2)cc1)c1cccc(F)c1 (centres unmarked) [Compound 277],1 to 10 µM
7,Cc1ccccc1C(C(=O)NC1CCCCC1)N(C(=O)c1cccs1)c1cccc(F)c1 (centres unmarked) [Compound 138],0.1 to 1 µM
8,Cc1ccccc1C(C(=O)NC1CCCCC1)N(Cc1cccs1)C(=O)CN1CCCc2ccccc21 (centres unmarked) [Compound 168],1 to 10 µM
9,Cc1ccccc1C(C(=O)NC1CCOCC1)N(C(=O)Cc1cccs1)c1cccc(F)c1 (centres unmarked) [Compound 159],0.1 to 1 µM
10,O=C(NC1CCCCC1)C(c1cc(F)cc(Cl)c1)N(C(=O)Cc1cccs1)c1cccc(F)c1 (centres unmarked) [Compound 102],0.1 to 1 µM
11,Cc1ccccc1C(C(=O)NC1CCCCC1)N(C(=O)OCc1ccccc1)c1ccccc1 (centres unmarked) [Compound 391],0.1 to 1 µM
12,Cc1ccccc1C(C(=O)NC1CCCCC1)N(C(=O)COc1ccccc1)c1cccc(F)c1 (centres unmarked) [Compound 136],0.1 to 1 µM
13,Cc1ccccc1C(C(=O)NC1CCCCC1)N(C(=O)Cc1cccs1)c1cccc(Br)c1 (centres unmarked) [Compound 146],0.1 to 1 µM
14,Cc1ccccc1C(C(=O)NC1CCCCC1)N(C(=O)c1c(C)noc1C)c1cccc(F)c1 (centres unmarked) [Compound 139],0.1 to 1 µM
15,Cc1ccccc1C(C(=O)NC1CCCCC1)N(C(=O)Oc1ccccc1)c1ccccc1 (centres unmarked) [Compound 392],0.1 to 1 µM
16,Cc1ccccc1[C@@H](C(=O)NC1CCCCC1)N(C(=O)[C@H]1CCCCN1C(=O)N(C)C)c1cccc(F)c1 [Compound 365],0.1 to 1 µM
17,Cc1ccc(F)c(C(C(=O)NC2CCCCC2)N(C(=O)Cc2cccs2)c2cccc(F)c2)c1 (centres unmarked) [Compound 127],0.1 to 1 µM
18,Cc1ccccc1C(C(=O)NC1CCCCC1)N(C(=O)Cn1nnc2ccccc21)c1cccc(F)c1 (centres unmarked) [Compound 151],0.1 to 1 µM
19,COC(=O)N1CCOC[C@H]1C(=O)N(c1cccc(F)c1)[C@H](C(=O)NC1CCCCC1)c1ccccc1C [Compound 385],≤ 0.1 µM
20,Cc1ccccc1C(C(=O)NC1CCCCC1)N(C(=O)CCNC(=O)OC(C)(C)C)c1cccc(F)c1 (centres unmarked) [Compound 369],0.1 to 1 µM
21,O=C(NC1CCCCC1)C(c1ccccc1Br)N(C(=O)Cc1cccs1)c1cccc(F)c1 (centres unmarked) [Compound 104],≤ 0.1 µM
22,O=C(NC1CCCCC1)C(c1cc(Cl)ccc1Cl)N(C(=O)Cc1cccs1)c1cccc(F)c1 (centres unmarked) [Compound 103],0.1 to 1 µM
23,O=C(NC1CCCCC1)C(c1ccccc1Cl)N(C(=O)Cn1cnc(Cl)c1Cl)c1cccc(F)c1 (centres unmarked) [Compound 383],≤ 0.1 µM
24,O=C(NC1CCCCC1)C(c1ccccc1F)N(C(=O)CNCc1ccncc1)c1cccc(F)c1 (centres unmarked) [Compound 323],0.1 to 1 µM
25,Cc1ccccc1C(C(=O)NC1CCCCC1)N(C(=O)CN1CCc2ccccc2C1)c1cccc(F)c1 (centres unmarked) [Compound 143],0.1 to 1 µM
